From patent US7345050B2, “Pyrimidine compounds” (AstraZeneca AB, priority 2001, dated 2008)

Row | Structure (SMILES) | melting point
1 | O=C(c1ccc(Nc2nccc(-c3cnc4ccccn34)n2)cc1)c1ccc(N2CCOCC2)cc1 [Example 1, 2-[4-(4-Morpholinobenzoyl)anilino]-4-(imidazo-[1,2-a]-pyridin-3-yl)pyrimidine] | > 237 °C (dec.)
2 | Cc1ccc(C(=O)c2ccc(Nc3nccc(-c4cnc5ccccn45)n3)cc2)cc1 [Example 3, 2-[4-(4-Methylbenzoyl)anilino)-4-(imidazo-[1,2-a]-pyridin-3-yl)pyrimidine] | 238.9 to 239.2 °C
3 | N#Cc1ccc(C(=O)c2ccc(Nc3nccc(-c4cnc5ccccn45)n3)cc2)cc1 [Example 4, 2-[4-(4-Cyanobenzoyl)anilino]-4-(imidazo-[1,2-a]-pyridin-3-yl)pyrimidine] | > 230 °C (dec.)
4 | CCOc1cccc(C(=O)c2ccc(Nc3nccc(-c4cnc5ccccn45)n3)cc2)c1 [Example 6, 2-[4-(3-Ethoxybenzoyl)anilino]-4-(imidazo-[1,2-a]-pyridin-3-yl)pyrimidine] | 197.3 to 197.5 °C
5 | O=C(c1ccccc1)c1cccc(Nc2nccc(-c3cnc4ccccn34)n2)c1 [Example 10, 2-(3-Benzoylanilino)-4-(imidazo-[1,2-a]-pyridin-3-yl)pyrimidine] | 237 to 246 °C (dec.)
6 | O=C(c1ccc(Nc2nccc(-c3cnc4ccccn34)n2)cc1)c1ccc2cc[nH]c2c1 [Example 11, 2-[4-(1 H-Indol-6-ylcarbonyl)anilino]-4-(imidazo-[1,2-a]-pyridin-3-yl)pyrimidine] | 173 to 178 °C (dec.)
7 | O=C(c1ccc(Nc2nccc(-c3cnc4ccccn34)n2)cc1)c1nccs1 [Example 13, 2-[4-(1,3-Thiazol-2-ylcarbonyl)anilino]-4-(imidazo-[1,2-a]-pyridin-3-yl)pyrimidine] | 234 to 235 °C (dec.)

More lines, now with the values ahead:

Row | melting point | Structure (SMILES)
8 | 213 to 216 °C | OC(c1ccccc1)c1ccc(Nc2nccc(-c3cnc4ccccn34)n2)cc1 (racemic) [Example 8, (±)-2-[4-(Hydroxyphenylmethyl)anilino]-4-(imidazo-[1,2-a]-pyridin-3-yl)pyrimidine]
9 | 194.7 to 196.7 °C | O=C(c1ccc(Nc2nccc(-c3cnc4ccccn34)n2)cc1)c1cccc(Cl)c1 [Example 5, 2-[4-(3-Chlorobenzoyl)anilino]-4-(imidazo-[1,2-a)-pyridin-3-yl)pyrimidine]
10 | 249 to 255 °C (dec.) | O=C(c1ccccc1)c1ccc(Nc2nccc(-c3cnc4ccccn34)n2)cc1 [Example 7, 2-(4-Benzoylanilino)-4-(imidazo-[1,2-a]-pyridin-3-yl)pyrimidine]
11 | 225 to 228 °C (dec.) | O=C(Cc1ccccc1)c1ccc(Nc2nccc(-c3cnc4ccccn34)n2)cc1 [Example 9, 2-[4-(1-Oxo-2-phenylethyl)anilino]-4-(imidazo-[1,2-a]-pyridin-3-yl)pyrimidine]
